Results on nine compounds are retold here after ChEMBL document CHEMBL4825734, “Synthesis, activity and mechanism for double-ring conjugated enones” (Bioorg Med Chem Lett, 2021).

For one assay, the target named is Toll-like receptor 4 (Homo sapiens, UniProt O00206). In words: Inhibition of TLR4 (unknown origin) by sandwich ELISA method. Background: An ELISA detects its analyte on a solid surface through an enzyme-linked reagent.
Assay [1] concerns Synovial cell. In words: Antiinflammatory activity in rat synovial cells assessed as decrease in LPS-induced NF-kappaB protein expression at 1 uM by DAPI staining based immunofluorescence microscopic analysis. Format: functional.
In assay [2] the test system is Synovial cell. In words: Inhibition of LPS-induced cytomorphological changes in rat synovial cells assessed as reduction in refractive ability with irregular spindle or round shaped cell body at 1 uM. Format: functional, cell-based.
Assay [3] has as its system Synovial cell. Kind of assay: Inhibition of LPS-induced abnormal proliferation in rat synovial cells assessed as reduction in cell number at 1 uM. Format: functional, cell-based.
The subject of assay [4] is Synovial cell. Kind of assay: Induction of apoptosis in rat synovial cells assessed as increase in caspase-3 expression at 1 uM in presence of LPS by DAPI staining based immunofluorescence microscopic analysis. Format: functional.
In assay [5] the test system is Synovial cell. Kind of assay: Antiinflammatory activity in rat synovial cells assessed as decrease in LPS-induced MyD88 protein expression at 1 uM by DAPI staining based immunofluorescence microscopic analysis. Format: functional.
In assay [6] the test system is Synovial cell. Kind of assay: Antiinflammatory activity in rat synovial cells assessed as downregulation of LPS-induced IL-6 production at 1 uM measured by ELISA. Format: functional, cell-based.
Assay [7] has as its system Synovial cell. In words: Antiinflammatory activity in rat synovial cells assessed as downregulation of LPS-induced TNF-alpha production at 1 uM measured by ELISA. Format: functional, cell-based.
For assay [8], the system named is Synovial cell. In words: Antiinflammatory activity in rat synovial cells assessed as downregulation of LPS-induced IL-1 beta production at 1 uM measured by ELISA. Format: functional, cell-based.
For assay [9], the system named is Synovial cell. In words: Induction of apoptosis in rat synovial cells assessed as green coloured positive apoptotic cells with nuclear pyknosis and chromatin condensation at 1 uM in presence of LPS by TUNEL staining based microscopic analysis. Format: functional.
Assay [10] has as its system Synovial cell. Kind of assay: Antiinflammatory activity in rat synovial cells assessed as decrease in LPS-induced TLR4 protein expression at 1 uM by DAPI staining based immunofluorescence microscopic analysis. Format: functional.
Assay [11] relates to Synovial cell. In words: Antiinflammatory activity in LPS-stimulated rat synovial cells assessed as increase in IkappaB protein expression at 1 uM by DAPI staining based immunofluorescence microscopic analysis. Format: functional.

The source made the active and inactive calls. The calls are words filed in the database; no cut-off is given here.

Toll-like receptor 4, sequence (O00206 whole entry): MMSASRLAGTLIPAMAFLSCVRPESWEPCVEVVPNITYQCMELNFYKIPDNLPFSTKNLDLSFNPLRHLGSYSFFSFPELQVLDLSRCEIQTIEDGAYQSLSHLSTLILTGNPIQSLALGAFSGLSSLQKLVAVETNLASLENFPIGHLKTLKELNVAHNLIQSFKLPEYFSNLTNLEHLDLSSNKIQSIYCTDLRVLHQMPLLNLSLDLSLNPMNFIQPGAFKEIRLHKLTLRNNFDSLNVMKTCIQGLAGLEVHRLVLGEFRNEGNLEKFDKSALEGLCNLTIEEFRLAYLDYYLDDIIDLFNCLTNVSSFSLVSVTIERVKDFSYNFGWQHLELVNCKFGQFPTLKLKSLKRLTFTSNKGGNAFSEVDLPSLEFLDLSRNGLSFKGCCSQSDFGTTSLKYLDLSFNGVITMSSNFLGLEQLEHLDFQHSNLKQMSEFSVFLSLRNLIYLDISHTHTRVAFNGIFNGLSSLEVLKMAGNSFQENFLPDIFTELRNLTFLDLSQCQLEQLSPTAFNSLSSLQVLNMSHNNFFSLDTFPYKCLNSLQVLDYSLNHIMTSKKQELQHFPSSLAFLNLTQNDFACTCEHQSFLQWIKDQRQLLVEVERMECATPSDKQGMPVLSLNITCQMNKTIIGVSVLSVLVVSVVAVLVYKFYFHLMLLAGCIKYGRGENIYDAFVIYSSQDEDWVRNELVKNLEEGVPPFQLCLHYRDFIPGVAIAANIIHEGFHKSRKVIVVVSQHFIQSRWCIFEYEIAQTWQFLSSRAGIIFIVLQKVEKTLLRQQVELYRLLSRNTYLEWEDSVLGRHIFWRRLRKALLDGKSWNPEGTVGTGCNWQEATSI

For orientation: IC50 means the concentration that inhibits the measured activity by half. On Toll-like receptor 4, `CC(C)[C@H]1CCC2C(=O)CCC(=O)C=C21` (stereo partly specified) showed an IC50 of 2820 nM.

Consider `CN(Cc1cnc2nc(N)nc(N)c2n1)c1ccc(C(=O)N[C@@H](CCC(=O)O)C(=O)O)cc1` [METHOTREXATE], for which the outcome in the assay with Synovial cell [1], in the assay with Synovial cell [4], in the assay on Synovial cell [5], in the assay with Synovial cell [6], in the assay with Synovial cell [7] and with Synovial cell [8] was Active. The result in the assay on Synovial cell [9], in the assay with Synovial cell [10] and with Synovial cell [11] was Active. Besides, the inhibition entry in the assay on Synovial cell [2] and in the assay with Synovial cell [3] was “Active” each time. The compound further yielded an IC50 against Toll-like receptor 4 of 1040 nM.

Regarding `O=C1C=C2CC[C@@H](NC(=O)OCc3ccccc3)CC2C(=O)C1` (stereo partly specified), the result with Synovial cell [1], in the assay on Synovial cell [4], with Synovial cell [5], in the assay on Synovial cell [6], in the assay on Synovial cell [7] and with Synovial cell [8] was Active. In addition, the result in the assay with Synovial cell [9], with Synovial cell [10] and with Synovial cell [11] was Active. For the same compound, the inhibition result in the assay with Synovial cell [2] and with Synovial cell [3] was “Active” throughout. In addition, at Toll-like receptor 4, inhibition was half-maximal at 560 nM (IC50).

For `O=C1C=C2CCCCC2C(=O)CC1` (stereo unspecified), half-maximal inhibition against Toll-like receptor 4 (IC50) required 1850 nM.

`C[C@H]1CCC2C(=O)CCC(=O)C=C2C1` (stereo partly specified) gave an IC50 against Toll-like receptor 4 of 2660 nM.

As for `CCCC1CCC([C@@H]2CCC3=CC(=O)CC(=O)C3C2)CC1` (stereo partly specified), at Toll-like receptor 4, the IC50 came to 730 nM.

Turning to `CCOC(=O)[C@H]1CCCC2C(=O)CC(=O)C=C21` (stereo partly specified), the IC50 at Toll-like receptor 4 stood at 1540 nM.

`O=C1C=C2C(CC[C@@H]2Cl)C(=O)C1` (stereo partly specified) displayed an IC50 against Toll-like receptor 4 of 2710 nM.

Compound `CC(C)[C@H]1CCC2C(=O)CC(=O)C=C21` (stereo partly specified) returned an IC50 on Toll-like receptor 4 of 2530 nM. This IC50 and that of the compound before are within 1.5-fold of each other.
